Experimental data: patent US20220356170A1, “SREBP INHIBITOR COMPRISING A THIOPHENE CENTRAL RING” (Capulus Therapeutics, LLC, priority 2019, published 2022)
pIC50: −log10 of the molar value.

Legend:
Assay in all cases: Cancer cell growth inhibition, Sulforhodamine B
Assay type in all cases: cell-based
MINO = conditions: Homo sapiens, 72 h, MINO (hematological)
Procedure, shortened: (§1)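 Values derive from single-point measurements at each of six concentrations, made from 10-fold DMSO stock dilutions (10 mM down to 0.1 uM) and dosed at 0.1% final DMSO. Exposure lasted 72 hr; cell growth was read by SRB staining and fitted to GI50, TGI, LC50 and related parameters.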

PBMC = PBMC (hematological), 72 hr; Non-Responder Cell Lines with IC50 >10 uM or Not Determined
Procedure, shortened: as §1

L-363 = conditions: Homo sapiens; L-363 (hematological), 72 hr; Responder Cell Lines
Procedure, shortened: as §1

SU-DHL-10 = conditions: Homo sapiens, SU-DHL10; SU-DHL-10 (hematological), 72 hr; Non-Responder Cell Lines with IC50 >10 uM or Not Determined
Procedure, shortened: as §1

NCIH460 = conditions: Homo sapiens, NCI-H460; NCIH460 (lung), 72 hr; Non-Responder Cell Lines with IC50 >10 uM or Not Determined
Procedure, shortened: as §1

SKNSH = conditions: Homo sapiens, SK-N-SH, 72 h, SKNSH (brain)
Procedure, shortened: as §1

A2780 = conditions: Homo sapiens; A2780 (ovary), 72 hr; Responder Cell Lines
Procedure, shortened: as §1

CACO2 = conditions: Homo sapiens, Caco-2; CACO2 (colon), 72 hr; Responder Cell Lines
Procedure, shortened: as §1

LOVO = conditions: Homo sapiens; LOVO (colon), 72 hr; Responder Cell Lines
Procedure, shortened: as §1

UMUC3 = conditions: Homo sapiens; UMUC3 (bladder), 72 hr; Non-Responder Cell Lines with IC50 >10 uM or Not Determined
Procedure, shortened: as §1

HCT15 = conditions: Homo sapiens, HCT-15; HCT15 (colon), 72 hr; Responder Cell Lines
Procedure, shortened: as §1

THP-1 = conditions: Homo sapiens, THP-1, 72 h, THP-1 (hematological)
Procedure, shortened: as §1

MIAPACA2 = conditions: Homo sapiens, MIA PaCa-2; MIAPACA2 (pancreas), 72 hr; Non-Responder Cell Lines with IC50 >10 uM or Not Determined
Procedure, shortened: as §1

A549 = conditions: Homo sapiens; A549 (lung), 72 hr; Responder Cell Lines
Procedure, shortened: as §1

SKMEL5 = conditions: Homo sapiens, SK-MEL-5, 72 h, SKMEL5 (skin)
Procedure, shortened: as §1

BT20 = conditions: Homo sapiens, BT-20; BT20 (breast), 72 hr; Non-Responder Cell Lines with IC50 >10 uM or Not Determined
Procedure, shortened: as §1

C33A = conditions: Homo sapiens, C-33-A; 72 hr; Responder Cell Lines
Procedure, shortened: as §1

NCIH82 = conditions: Homo sapiens, NCI-H82, 72 h, NCIH82 (lung)
Procedure, shortened: as §1

MHHES1 = conditions: Homo sapiens, MHH-ES-1, 72 h
Procedure, shortened: as §1

U87MG = conditions: Homo sapiens, U-87 MG; U87MG (brain), 72 hr; Non-Responder Cell Lines with IC50 >10 uM or Not Determined
Procedure, shortened: as §1

JIMT1 = conditions: Homo sapiens, JIMT-1; JIMT1 (breast), 72 hr; Responder Cell Lines
Procedure, shortened: as §1

RDES = conditions: RD-ES; RDES (bone), 72 hr; Non-Responder Cell Lines with IC50 >10 uM or Not Determined
Procedure, shortened: as §1

[1] = Non-Responder Cell Lines with IC50 >10 uM or Not Determined

pIC50 (MINO; [1]): < 5.00
pIC50 (MINO; Responder Cell Lines): > 5.00
pIC50 (L-363): > 5.00
pIC50 (SU-DHL-10): < 5.00
pIC50 (NCIH460): < 5.00
pIC50 (SKNSH; [1]): < 5.00
pIC50 (SKNSH; Responder Cell Lines): > 5.00
pIC50 (A2780): > 5.00
pIC50 (CACO2): > 5.00
pIC50 (LOVO): > 5.00
pIC50 (UMUC3): < 5.00
pIC50 (HCT15): > 5.00
pIC50 (THP-1; [1]): < 5.00
pIC50 (THP-1; Responder Cell Lines): > 5.00
pIC50 (MIAPACA2): < 5.00
pIC50 (A549): > 5.00
pIC50 (SKMEL5; [1]): < 5.00
pIC50 (SKMEL5; Responder Cell Lines): > 5.00
pIC50 (BT20): < 5.00
pIC50 (C33A): > 5.00
pIC50 (NCIH82; [1]): < 5.00
pIC50 (NCIH82; Responder Cell Lines): > 5.00
pIC50 (MHHES1; MHHES1 (bone), Non-Responder Cell Lines with IC50 >10 uM or Not Determined): < 5.00
pIC50 (MHHES1; MHHESI (bone), Responder Cell Lines): > 5.00
pIC50 (U87MG): < 5.00
pIC50 (JIMT1): > 5.00
pIC50 (RDES): < 5.00
SMILES: CC(C)(O)c1cc(-c2csc(-c3ccc(C(=O)N4CCC(O)CC4)cc3Cl)c2)ccn1 [Compound 1, (3-chloro-4-(4-(2-(2-hydroxypropan-2-yl)pyridin-4-yl)thiophen-2-yl)phenyl)(4-hydroxypiperidin-1-yl)methanone]
pIC50 (PBMC): < 5.00
